Values after ≈ are worked out from the molar mass of the structure shown.
Experiments:
Experiment in all cases: MIC/MBC antibiotic sensitivity (CLSI)
[1] = test system: Achromobacter xylosaxidans (HNA001); assay type: cell-based, Achromobacter xylosoxidans; details: Achromobacter; Tobramucin, CLSI criteria; A. xylosaxidans (HNA001); read-out: MIC (R/I/S category)
Description: (§1) The new compounds of the invention were synthesized following the general method of preparation (Tetrahedron, 2001, 57, 1671-1675), from the reaction between an intermediary compound of the acyl thiourea and HgCl2 in presence of trimethylamine. The products were adequately characterized regarding its chemistry. The antibacterial activity of the new compounds was assayed against two Gram-positive reference strains: Staphylococcus aureus (ATCC6538) and Bacillus cereus (ATCC10876), a fermenting Gram-negative strain: Escherichia coli (ATCC25922), and 26 non-fermenting Gram-negative isolates, including 3 reference strains: Pseudomonas aeruginosa (PAO1), Bordetella bronchiseptica (9.73H+), and Inquilinus limosus (DSM16000), and 23 isolates recovered from patients suffering from cystic fibrosis, including one Achromobacter xylosoxidans isolate, and 22 isolates belonging to the Burkholderia cepacia complex. The later were selected because they presented resistance to a high number of antimicrobial compounds, among a panel of 125 clinical isolates previously analyzed for its resistance against 17 antimicrobial compounds (1,2). The antibiotic sensitivity studies were performed by applying two quantitative methods which allow to determine the minimum inhibitory concentration (MIC) and the minimum bactericidal concentration (MBC).
(§2) The compounds obtained in Examples 1 and 2 were assayed against 23 isolates recovered from the sputum of patients suffering from cystic fibrosis being treated at the Sor Maria Ludovica Children Hospital (La Plata, Buenos Aires, Argentina). Nineteen of these isolates were selected for being highly resistant to most of the antimicrobial agents of clinical use from a panel of 125 isolates previously characterized in Martina et al. (1). Reference strains were also included: Gram (+) bacteria: B. cereus and S. aureus, fermenting Gram (−) bacteria: E. coli, and non-fermenting Gram (−) bacteria: Inquilinus limosus (DSM16000), B. bronchiseptica, and Pseudomonas aeruginosa (PAO1). The antibiotic sensitivity studies were performed applying two quantitative methods which allow to determine the minimum inhibitory concentration (MIC) and the minimum bactericidal concentration (MBC) according to the criteria established by the Clinical and Laboratory Standards Institute (CLSI) (4). For comparative purposes, three antibiotics commonly used in the treatment of pulmonary infections in cystic fibrosis patients were included in the study: tobramycin, ceftazidime and meropenem.

B. cenacepacia (FQC2524) = assay type: cell-based, B. cenocepacia; details: Burkholderia cenocepacia, Tobramucin, CLSI criteria, read-out: MIC (R/I/S category)
Description: as §1, §2

[2] = test system: Burkholderia cenocepacia (HE001); assay type: cell-based; details: Burkholderia cenocepacia; Tobramucin, CLSI criteria; B. cenocepacia (HE001); read-out: MIC (R/I/S category)
Description: as §1, §2

[3] = test system: Pseudomonas aeruginosa (PAO1); assay type: cell-based; details: Pseudomonas aeruginosa, P. aeruginosa (PAO1)
Description: as §1, §2

[4] = test system: Burkholderia multivorans (CBC 018); assay type: cell-based; details: Burkholderia multivorans; Tobramucin, CLSI criteria; B. multivorans (CBC 018); read-out: MIC (R/I/S category)
Description: as §1, §2

[5] = test system: Inquilinus limosus (DSM16000); assay type: cell-based; details: Tobramucin, CLSI criteria, read-out: MIC (R/I/S category)
Description: as §1, §2

[6] = test system: Burkholderia cepacia (CBC 010); assay type: cell-based; details: Burkholderia cepacia; Tobramucin, CLSI criteria; B. cepacia (CBC 010); read-out: MIC (R/I/S category)
Description: as §1, §2

[7] = test system: Burkholderia cenocepacia (CBC 035); assay type: cell-based; details: Burkholderia cenocepacia; Tobramucin, CLSI criteria; B. cenocepacia (CBC 035); read-out: MIC (R/I/S category)
Description: as §1, §2

[8] = test system: Burkholderia multivorans (CBC 020); assay type: cell-based; details: Burkholderia multivorans; Tobramucin, CLSI criteria; B. multivorans (CBC 020); read-out: MIC (R/I/S category)
Description: as §1, §2

[9] = test system: Burkholderia cenocepacia (CBC 031); assay type: cell-based; details: Burkholderia cenocepacia; Tobramucin, CLSI criteria; B. cenocepacia (CBC 031); read-out: MIC (R/I/S category)
Description: as §1, §2

[10] = test system: Burkholderia multivorans (CBC 022); assay type: cell-based; details: Burkholderia multivorans; Tobramucin, CLSI criteria; B. multivorans (CBC 022); read-out: MIC (R/I/S category)
Description: as §1, §2

[11] = test system: Burkholderia cenocepacia (CBC 024); assay type: cell-based; details: Burkholderia cenocepacia; Tobramucin, CLSI criteria; B. cenocepacia (CBC 024); read-out: MIC (R/I/S category)
Description: as §1, §2

[12] = test system: Burkholderia multivorans (CBC 019); assay type: cell-based; details: Burkholderia multivorans; Tobramucin, CLSI criteria; B. multivorans (CBC 019); read-out: MIC (R/I/S category)
Description: as §1, §2

[13] = test system: Burkholderia cenocepacia (CBC 023); assay type: cell-based; details: Burkholderia cenocepacia; Tobramucin, CLSI criteria; B. cenocepacia (CBC 023); read-out: MIC (R/I/S category)
Description: as §1, §2

B. contaminans (HNBC001) = assay type: cell-based; details: Tobramucin, CLSI criteria, read-out: MIC (R/I/S category)
Description: as §1, §2

[14] = test system: Burkholderia seminalis (CBC 040); assay type: cell-based; details: Burkholderia seminalis; Tobramucin, CLSI criteria; B. seminalis (CBC 040); read-out: MIC (R/I/S category)
Description: as §1, §2

[15] = test system: Burkholderia cenocepacia (CBC 029); assay type: cell-based; details: Burkholderia cenocepacia; Tobramucin, CLSI criteria; B. cenocepacia (CBC 029); read-out: MIC (R/I/S category)
Description: as §1, §2

[16] = test system: Burkholderia cepacia (CBC 011); assay type: cell-based; details: Burkholderia cepacia; Tobramucin, CLSI criteria; B. cepacia (CBC 011); read-out: MIC (R/I/S category)
Description: as §1, §2

[17] = test system: Bacillus cereus (ATCC10876); assay type: cell-based
Description: as §1, §2

[18] = test system: Staphylococcus aureus (ATCC6538); assay type: cell-based; details: Staphylococcus aureus, S. aureus (ATCC6538)
Description: as §1, §2

[19] = test system: Burkholderia cenocepacia (CBC 036); assay type: cell-based; details: Burkholderia cenocepacia; Tobramucin, CLSI criteria; B. cenocepacia (CBC 036); read-out: MIC (R/I/S category)
Description: as §1, §2

[20] = test system: Burkholderia multivorans (CBC 021); assay type: cell-based; details: Burkholderia multivorans; Tobramucin, CLSI criteria; B. multivorans (CBC 021); read-out: MIC (R/I/S category)
Description: as §1, §2

[21] = test system: Burkholderia seminalis (CBC 042); assay type: cell-based; details: Burkholderia seminalis; Tobramucin, CLSI criteria; B. seminalis (CBC 042); read-out: MIC (R/I/S category)
Description: as §1, §2

[22] = test system: Escherichia coli (ATCC25922); assay type: cell-based; details: Escherichia coli, E. coli (ATCC25922)
Description: as §1, §2

- MIC [1]: > 16 µg/mL
- MIC (B. cenacepacia (FQC2524)): > 16 µg/mL
- MIC [2]: > 16 µg/mL
- MIC ([3]; read-out: MIC): 1.95 µg/mL (≈ 4.17 µM)
- MIC [4]: > 16 µg/mL
- MIC [5]: > 16 µg/mL
- MIC [6]: > 16 µg/mL
- MIC [7]: > 16 µg/mL
- MIC [8]: > 16 µg/mL
- MIC [9]: > 16 µg/mL
- MIC [10]: > 16 µg/mL
- MIC [11]: > 16 µg/mL
- MIC [12]: > 16 µg/mL
- MIC [13]: > 16 µg/mL
- MIC (B. contaminans (HNBC001)): > 16 µg/mL
- MIC [14]: > 16 µg/mL
- MIC [15]: > 16 µg/mL
- MIC [16]: > 16 µg/mL
- MIC ([17]; read-out: MIC): 7.81 µg/mL (≈ 16.7 µM)
- MIC ([18]; read-out: MIC): 1.95 µg/mL (≈ 4.17 µM)
- MIC [19]: > 16 µg/mL
- MIC [20]: > 16 µg/mL
- MIC [21]: > 16 µg/mL
- MIC ([22]; read-out: MIC): 15.6 µg/mL (≈ 33.4 µM)
SMILES: NC[C@H]1O[C@H](O[C@H]2[C@H](O)[C@@H](O[C@H]3O[C@H](CO)[C@@H](O)[C@H](N)[C@H]3O)[C@H](N)C[C@@H]2N)[C@H](N)C[C@@H]1O [Tobramucin, tobramycin]
- MBC ([3]; read-out: MBC): 1.95 µg/mL (≈ 4.17 µM)
- MBC ([17]; read-out: MBC): 31.2 µg/mL (≈ 66.8 µM)
- MBC ([18]; read-out: MBC): 1.95 µg/mL (≈ 4.17 µM)
- MBC ([22]; read-out: MBC): 15.6 µg/mL (≈ 33.4 µM)
